Assay results from patent US8518980B2, “Treatment of Duchenne muscular dystrophy” (Summit Corporation PLC, priority 2006, dated 2013).

tested on: Utrophin A promoter linked to a luciferase reporter gene (H2K/mdx/Utro A reporter cell line); assay: Luciferase reporter assay (murine H2K cells); conditions: Mus musculus, H2K mdx

Row | SMILES | activity at 10 µM [%]
1 | Oc1ccc2nc(-c3ccc(Cl)cc3)oc2c1 [Example 579, 2-(4-chlorophenyl)benzo[d]oxazol-6-ol] | > 401
2 | COc1ccc(OCc2nc3ccccc3n2C)cc1 [Example 528, 2-((4-methoxyphenoxy)methyl)-1-methyl-1H-benzo[d]imidazole] | 201 to 300
3 | O=C(Nc1nc2ccccc2s1)c1ccccc1Br [Example 616, N-(benzo[d]thiazol-2-yl)-2-bromobenzamide] | > 401
4 | CN(C)c1ccc(-c2nc3ccccc3o2)cc1 [Example 486, 4-(benzo[d]oxazol-2-yl)-N,N-dimethylaniline] | < 200
5 | CCCS(=O)(=O)c1ccc2oc(-c3ccc(Cl)cc3)nc2c1 [Example 578, 2-(4-chlorophenyl)-5-(propylsulfonyl)benzo[d]oxazole] | < 200
6 | O=[N+]([O-])c1ccc2oc(-c3ccccc3)nc2c1 [Example 492, 5-nitro-2-phenylbenzo[d]oxazole] | 201 to 300
7 | CC(=O)Nc1ccc(-c2nc3cc(Cl)c(NC(C)=O)cc3[nH]2)cc1 [Example 556, N-(4-(6-acetamido-5-chloro-1H-benzo[d]imidazol-2-yl)phenyl)acetamide] | < 200
8 | Nc1ccc2nc(-c3ccc(-c4nc5ccc(N)cc5[nH]4)cc3)[nH]c2c1 [Example 476, 2,2′-(1,4-phenylene)bis(1H-benzo[d]imidazol-6-amine)] | < 200
9 | Nc1ccc2oc(-c3ccc(Cl)cc3)nc2c1 [Example 488, 2-(4-chlorophenyl)benzo[d]oxazol-5-amine] | 201 to 300
10 | O=C(NCCc1ccccc1)c1cc2ccccc2o1 [Example 665, N-phenethylbenzofuran-2-carboxamide] | 201 to 300
11 | Cc1ccc(NC(=O)C(=O)c2c[nH]c3ccccc23)c(Br)c1 [Example 663, N-(2-bromo-4-methylphenyl)-2-(1H-indol-3-yl)-2-oxoacetamide] | 301 to 400
12 | Cc1nc(Nc2nc3ccccc3o2)nc2c1CCC2 [Example 678, N-(4-methyl-6,7-dihydro-5H-cyclopenta[d]pyrimidin-2-yl)benzo[d]oxazol-2-amine] | 201 to 300
13 | O=C(Nc1cccc(-c2nc3ccccc3[nH]2)c1)c1cccs1 [Example 504, N-(3-(1H-benzo[d]imidazol-2-yl)phenyl)thiophene-2-carboxamide] | < 200
14 | COc1ccc(-c2nc3ccccc3[nH]2)cc1 [Example 470, 2-(4-methoxyphenyl)-1H-benzo[d]imidazole] | 201 to 300
15 | O=C(Nc1ccc(-c2nc3ccccc3s2)cc1)C1CC1 [Example 661, N-(4-(benzo[d]thiazol-2-yl)phenyl)cyclopropanecarboxamide] | 301 to 400
16 | O=C(Nc1ccccc1-c1nc2ccccc2[nH]1)c1ccc(Cl)cc1Cl [Example 500, N-(2-(1H-benzo[d]imidazol-2-yl)phenyl)-2,4-dichlorobenzamide] | < 200
17 | CN(C)c1ccc(-c2nc3cc(N)ccc3o2)cc1 [Example 491, 2-(4-(dimethylamino)phenyl)benzo[d]oxazol-5-amine] | 201 to 300
18 | CCOCC(=O)Nc1ccc(-c2nc3ccc(C)cc3s2)cc1 [Example 657, 2-ethoxy-N-(4-(6-methylbenzo[d]thiazol-2-yl)phenyl)acetamide] | 301 to 400

Row | SMILES | activity at 10 µM [%]
19 | Cc1ccc(C(=O)Nc2nc3ccccc3s2)c(Cl)c1 [Example 567, N-(benzo[d]thiazol-2-yl)-2-chloro-4-methylbenzamide] | < 200
20 | CCOc1ccc(-c2nc3cc(N)ccc3o2)cc1 [Example 549, 2-(4-ethoxyphenyl)benzo[d]oxazol-5-amine] | < 200
21 | CC(=O)Nc1cccc(-c2nc3ccccc3s2)c1 [Example 513, N-(3-(benzo[d]thiazol-2-yl)phenyl)acetamide] | < 200
22 | Cc1cccc(NC(=O)c2sc3nc(C)cc(C)c3c2N)c1 [Example 650, 3-amino-4,6-dimethyl-N-m-tolylthieno[2,3-b]pyridine-2-carboxamide] | 301 to 400
23 | CCOc1ccc2nc(NC(=O)c3ccccc3)sc2c1 [Example 555, N-(6-ethoxybenzo[d]thiazol-2-yl)benzamide] | < 200
24 | O=C(Nc1ccc(-c2nc3ccccc3[nH]2)cc1)c1ccco1 [Example 562, N-(4-(1H-benzo[d]imidazol-2-yl)phenyl)furan-2-carboxamide] | 301 to 400
25 | Oc1cccc(-c2nc3ccccc3s2)c1 [Example 594, 3-(Benzo[d]thiazol-2-yl)phenol] | > 401
26 | Cc1ccc(-c2nc3ccccc3s2)cc1N [Example 479, 5-(benzo[d]thiazol-2-yl)-2-methylaniline] | 201 to 300
27 | Cc1ccc2oc(-c3cc(NC(=O)c4cncc(Br)c4)ccc3O)nc2c1 [Example 684, 5-bromo-N-(4-hydroxy-3-(5-methylbenzo[d]oxazol-2-yl)phenyl)nicotinamide] | 201 to 300
28 | CCc1ccc2oc(-c3cccc(NC(C)=O)c3)nc2c1 [Example 642, N-(3-(5-ethylbenzo[d]oxazol-2-yl)phenyl)acetamide] | 301 to 400
29 | CCC(=O)Nc1cccc(-c2nc3cc(C)ccc3o2)c1 [Example 644, N-(3-(5-methylbenzo[d]oxazol-2-yl)phenyl)propionamide] | 301 to 400
30 | CC(=O)Nc1ccc2oc(-c3ccc(Cl)cc3Cl)nc2c1 [Example 517, N-(2-(2,4-dichlorophenyl)benzo[d]oxazol-5-yl)acetamide] | 201 to 300
31 | Nc1cc(-c2nc3ccccc3[nH]2)ccc1Cl [Example 653, 5-(1H-benzo[d]imidazol-2-yl)-2-chloroaniline] | 301 to 400
32 | Nc1c(C(=O)Nc2ccccc2F)sc2nc3c(cc12)CCC3 [Example 673, 3-amino-N-(2-fluorophenyl)-6,7-dihydro-5H-cyclopenta[e]thieno[2,3-b]pyridine-2-carboxamide] | 201 to 300
33 | CCc1nc2cc(S(=O)(=O)CC)ccc2o1 [Example 572, 2-ethyl-5-(ethylsulfonyl)benzo[d]oxazole] | < 200
34 | Cc1cc2nc(-c3cc(N)ccc3O)oc2cc1C [Example 559, 4-amino-2-(5,6-dimethylbenzo[d]oxazol-2-yl)phenol] | 301 to 400
35 | O=C(CSc1nc2ccccc2s1)N1CCCCC1 [Example 617, 2-(benzo[d]thiazol-2-ylthio)-1-(piperidin-1-yl)ethanone] | > 401
36 | OCc1cn(-c2ccccc2)nc1-c1cc2ccccc2o1 [Example 674, (3-(benzofuran-2-yl)-1-phenyl-1H-pyrazol-4-yl)methanol] | 201 to 300

same assay, conditions: Table 1; luciferase level relative to control; final concentration of 10 μM

Row | SMILES | Activity
37 | CC(=O)c1ccc2oc(-c3ccc(Cl)c(Cl)c3)nc2c1 [Example 453, 1-(2′-(3″,4″-Dichlorophenyl)benzo[d]oxazol-5′-yl)ethanone] | ++++ (Above 401% relative to control)
38 | CCN(CC)S(=O)(=O)c1ccc2oc(-c3ccc(Cl)cc3)nc2c1 [Example 439, 2-(4′-chlorophenyl)-5-(N,N-diethylsulfonamidyl)-benzoxazole] | + (Up to 200% relative to control)
39 | O=C(O)c1cccc(-c2ccc3oc(-c4ccc(Cl)cc4)nc3c2)c1 [Example 313, 3-(2-(4-chlorophenyl)benzo[d]oxazol-5-yl)benzoic acidd] | + (Up to 200% relative to control)
